Measurements: patent US20240199558A1, “2,4,6-TRISUBSTITUTED 1,3,5-TRIAZINES AS MODULATORS OF CX3CR1” (ASTRAZENECA AB, priority 2022, published 2024)
pIC50: −log10 of the molar value.

Legend:
CX3CR1 [1] = target: T1, CX3CR1 (Homo sapiens (Human), UniProt P49238); assay: CX3CR1-dependent cell adhesion to recombinant CX3CL1 in human whole blood under flow; assay type: cell-based; settings: recombinant full-length CX3CL1
Experimental: (§1) Adhesion of cells to recombinant full-length human CX3CL1 was monitored under physiological flow using a Cellix VenaFlux microfluidics platform with connected fluorescent microscope and camera, and using Vena8 Fluoro+ Biochips (Cellix) pre-coated with anti-His monoclonal antibody (25 μg/mL; R&D Systems) and His-tagged full-length CX3CL1 (15 μg/mL; R&D Systems).
CX3CR1-Dependent Cell Adhesion to Recombinant CX3CL1 in Human Whole Blood Under Flow
Human whole blood from healthy volunteers was collected using heparin as anti-coagulant. […] Compound stocks or DMSO vehicle were added to 0.5 or 1.0 ml aliquots of blood such that the final concentration of DMSO was 0.1%, corresponding to a 1000-fold dilution of compound stock. Blood was pre-incubated with compound at room temperature for 60 minutes with gentle shaking. DiOC6 (Invitrogen, 5 μM) or Hoechst 33342 (Invitrogen, 300 μM) dye was subsequently added to fluorescently label cells and enable their detection during the flow adhesion assay. To monitor adhesion, blood was allowed to flow through the channels of a Vena8 Fluoro+ biochip at 2.25 dynes per cm^2 for 3-6 minutes prior to capturing images for quantification. Fluorescent cells adhering to the channels were counted and the mean and/or total count across five to six images in each channel were used for calculating concentration-response curves.

CX3CR1 [2] = target: T1, CX3CR1; assay: hCX3CR1 [125I]-CX3CL1 displacement binding (SPA); settings: CHO-hCX3CR1 membranes, [125I]-CX3CL1, SPA beads
Experimental: hCX3CR1 [^125I]-CX3CL1 Displacement Binding (SPA)
CHO-hCX3CR1 membranes (3 μg per well) together with […] [^125I]-CX3CL1 (Perkin Elmer) and different concentrations of competitor compound were incubated together with 400 μg/well WGA coated PVT SPA beads (Perkin Elmer) in 50 mM HEPES (pH 7.4), 10 mM MgCl2, 1 mM EDTA and 0.1% Gelatin in a Greiner polystyrene flat-bottom 384-well plate. The plate was incubated for 20 h at room temperature before the radioactivity was measured using a MicroBeta Trilux reader (PerkinElmer). The DMSO concentration was held constant at 1%.

CX3CR1 [3] = target: T1, CX3CR1; assay: hCX3CR1 [3H]-AZD8797 competitive binding assay (filter); settings: CHO-hCX3CR1 membranes, 2 nM [3H]-AZD8797
Outline: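 CHO-hCX3CR1 membranes (9 μg/well) were incubated 2 h at room temperature with 2 nM [3H]-AZD8797 and varying competitor concentrations. Buffer: 25 mM HEPES pH 7.4, 10 mM MgCl2, 1 mM CaCl2, 0.5% BSA, 1% DMSO. Bound ligand was collected by vacuum filtration, washed in ice-cold buffer with 500 mM NaCl, and counted by scintillation.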

CX3CR1 [4] = target: T1, CX3CR1; assay: Flow adhesion for human B-lymphocyte cell line RPMI-8226; assay type: cell-based; settings: RPMI-8226 cells under flow, recombinant full-length CX3CL1
Experimental: as §1
Flow Adhesion for Human B-Lymphocyte Cell Line RPMI-8226
Cells were cultured in RPMI 1640 medium with GlutaMAX and 20% FBS (HyClone, Perbio). Before each experiment, cells were centrifuged at 320 g and resuspended to 5×10^6 cells per ml in RPMI 1640 with 1% FBS. Cells were pre-incubated for 15 minutes at room temperature with CX3CR1 antagonist in an 8-step 3-fold dilution series starting at 3.3 μM. DMSO concentration was kept constant for all antagonist concentrations at 0.1%. Cells were pumped through the channels of the Vena8 Fluoro+ biochip at 0.5 dynes per cm2 for 3 m prior to capturing microscope images for quantification. Cells adhering to channels were counted and the mean values across five images in each channel were used for calculating the concentration-response curves.

T1 sequence (P49238 whole entry): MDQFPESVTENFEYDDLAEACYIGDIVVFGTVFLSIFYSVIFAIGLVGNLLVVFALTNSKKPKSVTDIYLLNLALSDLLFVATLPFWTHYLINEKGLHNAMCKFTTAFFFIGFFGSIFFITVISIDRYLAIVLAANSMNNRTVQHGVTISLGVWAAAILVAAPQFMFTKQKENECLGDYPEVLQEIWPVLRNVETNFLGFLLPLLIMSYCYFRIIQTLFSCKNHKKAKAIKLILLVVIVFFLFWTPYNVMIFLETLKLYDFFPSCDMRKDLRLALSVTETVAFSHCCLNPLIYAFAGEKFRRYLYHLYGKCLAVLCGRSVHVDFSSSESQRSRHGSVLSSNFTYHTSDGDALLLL

| SMILES | pIC50 (CX3CR1 [1]) | pIC50 (CX3CR1 [2]) | pIC50 (CX3CR1 [3]) | pIC50 (CX3CR1 [4]) |
| --- | --- | --- | --- | --- |
| CC(C)C[C@H](CO)Nc1nc(C[C@@H](C)c2ccc(Cl)cn2)nc(NS(C)(=O)=O)n1 (single isomer, unassigned) [Example 150, N-(4-((R*)-2-(5-Chloropyridin-2-yl)propyl)-6-(((R)-1-hydroxy-4-methylpentan-2-yl)amino)-1,3,5-triazin-2-yl)methanesulfonamide] | 5.80 | 5.82 | 6.73 |  |
| COc1ccc([C@@H](C)Cc2nc(N[C@@H](CO)CC(C)C)nc(NS(C)(=O)=O)n2)cn1 (single isomer, unassigned) [Example 75, N-(4-(((R)-1-Hydroxy-4-methylpentan-2-yl)amino)-6-((S*)-2-(6-methoxypyridin-3-yl)propyl)-1,3,5-triazin-2-yl)methanesulfonamide] |  | 5.29 | 5.57 | < 5.52 |
| COc1cc(C)c([C@H](C)Cc2nc(N[C@@H](CO)CC(C)C)nc(NS(C)(=O)=O)n2)cn1 (single isomer, unassigned) [Example 13, N-(4-(((R)-1-Hydroxy-4-methylpentan-2-yl)amino)-6-((R*)-2-(6-methoxy-4-methylpyridin-3-yl)propyl)-1,3,5-triazin-2-yl)methanesulfonamide] |  | 5.37 | 6.21 |  |
| COc1ncccc1[C@H](C)Cc1nc(N[C@@H](CO)CC(C)C)nc(NS(C)(=O)=O)n1 (single isomer, unassigned) [Example 17, N-(4-(((R)-1-Hydroxy-4-methylpentan-2-yl)amino)-6-((R*)-2-(2-methoxypyridin-3-yl)propyl)-1,3,5-triazin-2-yl)methanesulfonamide] |  | 5.36 | 6.51 |  |
| CCC(Cc1nc(N[C@@H](CO)CC(C)C)nc(NS(C)(=O)=O)n1)c1ccccc1F (stereo partly drawn) [Example 89, N-(4-(2-(2-Fluorophenyl)butyl)-6-(((R)-1-hydroxy-4-methylpentan-2-yl)amino)-1,3,5-triazin-2-yl)methanesulfonamide] |  | 6.01 | 6.60 |  |
| COc1ncc([C@@H](C)Cc2nc(N[C@@H](CO)CC(C)C)nc(NS(C)(=O)=O)n2)cc1Cl (single isomer, unassigned) [Example 10, N-(4-((S*)-2-(5-Chloro-6-methoxypyridin-3-yl)propyl)-6-(((R)-1-hydroxy-4-methylpentan-2-yl)amino)-1,3,5-triazin-2-yl)methanesulfonamide] |  | < 4.70 | 6.04 |  |
| COc1ncc([C@@H](C)Cc2nc(N[C@@H](CO)CC(C)C)nc(NS(C)(=O)=O)n2)cc1F (single isomer, unassigned) [Example 8, N-(4-((S*)-2-(5-Fluoro-6-methoxypyridin-3-yl)propyl)-6-(((R)-1-hydroxy-4-methylpentan-2-yl)amino)-1,3,5-triazin-2-yl)methanesulfonamide] |  | < 4.70 | 5.87 |  |
| COc1ccc([C@H](C)Cc2nc(N[C@@H](CO)CC(C)C)nc(NS(C)(=O)=O)n2)c(OC)n1 (single isomer, unassigned) [Example 52, N-(4-((R*)-2-(2,6-Dimethoxypyridin-3-yl)propyl)-6-(((R)-1-hydroxy-4-methylpentan-2-yl)amino)-1,3,5-triazin-2-yl)methanesulfonamide] |  | 5.26 | 6.35 |  |
| CC(C)C[C@H](CO)Nc1nc(C[C@H](C)c2cnc(C3CC3)nc2)nc(NS(C)(=O)=O)n1 (single isomer, unassigned) [Example 11, N-(4-((S*)-2-(2-Cyclopropylpyrimidin-5-yl)propyl)-6-(((R)-1-hydroxy-4-methylpentan-2-yl)amino)-1,3,5-triazin-2-yl)methanesulfonamide] |  | < 4.52 | < 5.00 |  |

More lines, now with the values ahead:

| pIC50 (CX3CR1 [1]) | pIC50 (CX3CR1 [2]) | pIC50 (CX3CR1 [3]) | pIC50 (CX3CR1 [4]) | SMILES |
| --- | --- | --- | --- | --- |
| 6.30 | 7.17 | 7.77 |  | CC(C)C[C@H](CO)Nc1nc(C[C@@H](C)c2cccc(Cl)c2F)nc(NS(C)(=O)=O)n1 (single isomer, unassigned) [Example 4, N-(4-((R*)-2-(3-Chloro-2-fluorophenyl)propyl)-6-(((R)-1-hydroxy-4-methylpentan-2-yl)amino)-1,3,5-triazin-2-yl)methanesulfonamide] |
| 6.94 |  | 7.49 |  | CC(C)C[C@H](CO)Nc1nc(C[C@@H](C)c2ccc(F)c(F)c2F)nc(NS(C)(=O)=O)n1 (single isomer, unassigned) [Example 88, N-(4-(((R)-1-Hydroxy-4-methylpentan-2-yl)amino)-6-((R*)-2-(2,3,4-trifluorophenyl)propyl)-1,3,5-triazin-2-yl)methanesulfonamide] |
|  | 6.37 | 6.81 | 6.28 | CC(C)C[C@H](CO)Nc1nc(C[C@H](C)c2cccc(F)c2F)nc(NS(C)(=O)=O)n1 (single isomer, unassigned) [Example 143, N-(4-((S*)-2-(2,3-Difluorophenyl)propyl)-6-(((R)-1-hydroxy-4-methylpentan-2-yl)amino)-1,3,5-triazin-2-yl)methanesulfonamide] |
|  | 6.05 | 6.62 |  | CC(C)C[C@H](CO)Nc1nc(C[C@H](C)c2ccc(F)cc2F)nc(NS(C)(=O)=O)n1 (single isomer, unassigned) [Example 5, N-(4-((S*)-2-(2,4-Difluorophenyl)propyl)-6-(((R)-1-hydroxy-4-methylpentan-2-yl)amino)-1,3,5-triazin-2-yl)methanesulfonamide] |
|  | 6.25 | 6.89 | 7.96 | COc1ccc([C@@H](C)Cc2nc(N[C@@H](CO)CC(C)C)nc(NS(C)(=O)=O)n2)c(F)c1 (single isomer, unassigned) [Example 82, N-(4-((S*)-2-(2-Fluoro-4-methoxyphenyl)propyl)-6-(((R)-1-hydroxy-4-methylpentan-2-yl)amino)-1,3,5-triazin-2-yl)methanesulfonamide] |
| < 4.52 | < 4.52 |  |  | CC(C)C[C@H](CO)Nc1nc(C[C@H](C)c2ccc(Cl)cn2)nc(NS(C)(=O)=O)n1 (single isomer, unassigned) [Example 149, N-(4-((S*)-2-(5-Chloropyridin-2-yl)propyl)-6-(((R)-1-hydroxy-4-methylpentan-2-yl)amino)-1,3,5-triazin-2-yl)methanesulfonamide] |
| 6.96 | 6.02 | 7.02 |  | CC(C)C[C@H](CO)Nc1nc(C[C@@H](C)c2ccc(F)cc2F)nc(NS(C)(=O)=O)n1 (single isomer, unassigned) [Example 6, N-(4-((R*)-2-(2,4-Difluorophenyl)propyl)-6-(((R)-1-hydroxy-4-methylpentan-2-yl)amino)-1,3,5-triazin-2-yl)methanesulfonamide] |
| 5.89 | 6.37 | 6.81 |  | CC(C)C[C@H](CO)Nc1nc(C[C@H](C)c2ccc(Cl)cc2F)nc(NS(C)(=O)=O)n1 (single isomer, unassigned) [Example 83, N-(4-((S*)-2-(4-Chloro-2-fluorophenyl)propyl)-6-(((R)-1-hydroxy-4-methylpentan-2-yl)amino)-1,3,5-triazin-2-yl)methanesulfonamide] |
|  | 6.44 | 6.44 |  | CC(C)C[C@H](CO)Nc1nc(C[C@@H](C)c2ccc(Cl)c(Cl)c2)nc(NS(C)(=O)=O)n1 (single isomer, unassigned) [Example 2, N-(4-((S*)-2-(3,4-Dichlorophenyl)propyl)-6-(((R)-1-hydroxy-4-methylpentan-2-yl)amino)-1,3,5-triazin-2-yl)methanesulfonamide] |
|  | 6.35 | 6.91 |  | CC(C)C[C@H](CO)Nc1nc(C[C@H](C)c2cccc(Cl)c2F)nc(NS(C)(=O)=O)n1 (single isomer, unassigned) [Example 3, N-(4-((S*)-2-(3-Chloro-2-fluorophenyl)propyl)-6-(((R)-1-hydroxy-4-methylpentan-2-yl)amino)-1,3,5-triazin-2-yl)methanesulfonamide] |
